Measured values: ChEMBL document CHEMBL1136215, “Potent quinoxaline-based inhibitors of PDGF receptor tyrosine kinase activity. Part 1: SAR exploration and effective bioisosteric replacement of a phenyl substituent” (Bioorg Med Chem Lett, 2003)

How the values were obtained:
[1] = biological target: T1, Platelet-derived growth factor receptor (Homo sapiens, UniProt P09619+P16234); test: Inhibition of Platelet-derived growth factor receptor; assay type: protein-complex assay
[2] = biological target: T1, Platelet-derived growth factor receptor; test: Inhibition of Platelet-derived growth factor receptor at 1 uM; assay type: protein-complex assay
HASMC = test: Inhibition of mitogenesis in human aortic smooth muscle cells(HASMC); assay type: functional, cell-based

SMILES | IC50 [1] [µM] | inhibition [2] [%] | IC50 (HASMC) [µM]
Cc1cc2ncc(Nc3ccccc3)nc2cc1C | 0.34 | – | –
COc1cc2ncc(N(C)c3ccccc3)nc2cc1OC | – | 0 | –
COc1cccc2ncc(Nc3ccccc3)nc12 | – | 11 | –
COc1ccc2nc(Nc3ccccc3)cnc2c1 | 1.6 | – | –
CCC1CCC(Oc2cnc3cc(OC)c(OC)cc3n2)CC1 (configuration not stated) | – | 16 | –
c1ccc(Nc2cnc3ccccc3n2)cc1 | 5.1 | – | –
COc1cc2ncc(Nc3cccc(Cl)c3)nc2cc1OC | 0.004 | – | –
COc1cc2ncc(NCc3ccccc3)nc2cc1OC | 0.092 | – | –
COc1cc2cc(-c3ccsc3)cnc2cc1OC | 0.461 | – | –
COc1cccc2nc(Nc3ccccc3)cnc12 | – | 5 | –
COc1ccc2ncc(Nc3ccccc3)nc2c1 | 0.042 | – | –
COc1cc2ncc(Nc3ccccc3)nc2cc1OC | 0.006 | – | –
COc1cc2ncc(Nc3ccc(Cl)cc3)nc2cc1OC | – | 8 | –

Second part, the molecule after the results:

IC50 [1] [µM] | inhibition [2] [%] | IC50 (HASMC) [µM] | SMILES
0.879 | – | – | COc1cc2ncc(N[C@@H]3CC4CCC3C4)nc2cc1OC (mixture of isomers)
– | 0 | – | COc1cc2ncc(SC3CCCCC3)nc2cc1OC
0.128 | – | – | COc1cc2ncc(NC3CCCC3)nc2cc1OC
0.096 | – | – | COc1cc2cc(NC3CCCCC3)cnc2cc1OC
0.015 | – | 0.061 | COc1cc2ncc(N[C@@H]3CC4CCC3C4)nc2cc1OC (stereo in doubt; 38)
0.265 | – | – | COc1cc2ncc(O[C@@H]3CC4CCC3C4)nc2cc1OC (mixture of isomers)
0.124 | – | – | COc1cc2ncc(NC3CCCCC3)nc2cc1OC
0.159 | – | – | COc1cc2ncc(OC3CCCC3)nc2cc1OC
0.742 | – | 0.585 | COc1cc2ncc(N[C@H]3CC4CCC3C4)nc2cc1OC (some centres not stated)
0.065 | – | – | COc1cc2ncc(OC3CCCCC3)nc2cc1OC
0.041 | – | – | COc1cc2ncc(NC3CCCC(C)C3)nc2cc1OC (configuration not stated)
0.025 | – | 0.395 | COc1cc2ncc(O[C@H]3CC4CCC3C4)nc2cc1OC (mixture of isomers)
– | 12 | – | COc1cc2ncc(NCC3CCCCC3)nc2cc1OC
0.601 | – | – | COc1cc2cc(OC3CCCCC3)cnc2cc1OC
0.226 | – | – | COc1cc2ncc(SC3CCCC3)nc2cc1OC
0.02 | – | – | COc1cc2ncc(NC3CC4CCC3C4)nc2cc1OC (racemic)
